This passage reports Ki results from US8450313B2, “2,3-diaryl- or heteroaryl-substituted 1,1,1-trifluoro-2-hydroxypropyl compounds” (Hoffmann-La Roche Inc., priority 2009, dated 2013).

SMILES strings stand for the structures.

This assay deals with T1, full length human recombinant glucocorticoid receptor (Homo sapiens, UniProt P04150).
T1 construct: It contains some partially purified full length human recombinant glucocorticoid receptor; purchased Panvera/Invitrogen PV4302
T1 sequence (P04150 1-777): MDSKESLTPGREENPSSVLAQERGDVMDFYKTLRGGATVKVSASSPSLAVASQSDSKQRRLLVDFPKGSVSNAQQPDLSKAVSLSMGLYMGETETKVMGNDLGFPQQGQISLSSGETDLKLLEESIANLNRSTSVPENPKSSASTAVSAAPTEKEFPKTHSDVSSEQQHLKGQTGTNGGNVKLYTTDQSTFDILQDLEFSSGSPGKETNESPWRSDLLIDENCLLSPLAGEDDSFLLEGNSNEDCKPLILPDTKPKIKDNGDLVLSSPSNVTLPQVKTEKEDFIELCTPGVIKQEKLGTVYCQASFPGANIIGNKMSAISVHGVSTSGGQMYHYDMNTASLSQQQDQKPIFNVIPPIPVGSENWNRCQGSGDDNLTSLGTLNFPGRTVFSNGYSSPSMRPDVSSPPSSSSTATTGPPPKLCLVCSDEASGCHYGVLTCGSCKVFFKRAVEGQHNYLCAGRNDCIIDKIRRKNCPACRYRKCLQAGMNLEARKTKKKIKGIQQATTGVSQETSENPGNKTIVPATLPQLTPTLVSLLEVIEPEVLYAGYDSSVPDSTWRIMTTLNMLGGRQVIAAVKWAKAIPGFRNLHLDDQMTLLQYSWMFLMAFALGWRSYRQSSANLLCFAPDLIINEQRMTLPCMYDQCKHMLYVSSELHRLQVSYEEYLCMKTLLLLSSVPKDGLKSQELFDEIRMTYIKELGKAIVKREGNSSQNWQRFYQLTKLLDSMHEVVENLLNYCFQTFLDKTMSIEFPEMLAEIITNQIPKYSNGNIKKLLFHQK
As to the kind of experiment: Glucocorticoid Receptor Binding Assay (Glucocorticoid Receptor Competitor Assay far red kit, fluorescence polarization). Particulars: competition with fluorescent GR ligand Fluormone GS Far Red, 3 hours at 22° C., pH 7.4; Ki calculated from IC50 by Cheng-Prusoff. In short, it runs like this:
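Compounds in serial dilution (from intermediate 4.2% DMSO stock) displace Fluormone GS Far Red from full-length human recombinant GR with stabilizing peptide, pH 7.4, incubated 3 hours at 22° C dark. Polarized fluorescence (610–660 nm) gives IC50 via sigmoidal fit, converted to Ki by Cheng-Prusoff.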

The Ki is the equilibrium dissociation constant of an inhibitor or competing ligand from its target.

Take `COc1ccc([C@@H](C)[C@@](O)(c2ccc3oc(=O)n(C)c3c2)C(F)(F)F)c(Cl)c1` (stereo in doubt) [Example 171, 5-[2-(2-Chloro-4-methoxy-phenyl)-1-hydroxy-1-trifluoromethyl-propyl]-3-methyl-3H-benzooxazol-2-one]: the Ki is 0.4 nM.
In the case of `COC(=O)c1ccc(-c2ccc([C@H](C)[C@](O)(c3ccc(=O)n4ccccc34)C(F)(F)F)c(Cl)c2)cc1F` (stereo in doubt) [Example 49, 3′-Chloro-3-fluoro-4′-[3,3,3-trifluoro-2-hydroxy-1-methyl-2-(4-oxo-4H-quinolizin-1-yl)-propyl]-biphenyl-4-carboxylic acid methyl ester] it was 16 nM.
In the case of `C[C@@H](c1ccc(-c2ccc(C(=O)O)c(F)c2)cc1Cl)[C@](O)(c1ccc(=O)n2ccccc12)C(F)(F)F` (stereo in doubt) [Example 50, 3′-Chloro-3-fluoro-4′-[3,3,3-trifluoro-2-hydroxy-1-methyl-2-(4-oxo-4H-quinolizin-1-yl)-propyl]-biphenyl-4-carboxylic acid] it was 48.7 nM.
In the case of `C[C@H](c1ccc(Oc2ccc(Cl)c(C(=O)O)c2)cc1Cl)[C@@](O)(c1ccc2c(c1)N(C)C(=O)CO2)C(F)(F)F` (racemic) [Example 58, 2-Chloro-5-{3-chloro-4-[3,3,3-trifluoro-2-hydroxy-1-methyl-2-(4-methyl-3-oxo-3,4-dihydro-2H-benzo[1,4]oxazin-6-yl)-propyl]-phenoxy}-benzoic acid] it was 0.3 nM; in that of `C[C@@H](c1cc(-c2ccc(C(=O)O)cc2)ccc1Cl)[C@](O)(c1ccc2c(c1)N(C)C(=O)CO2)C(F)(F)F` (relative stereo) [Example 17, 4′-Chloro-3′-[3,3,3-trifluoro-2-hydroxy-1-methyl-2-(4-methyl-3-oxo-3,4-dihydro-2H-benzo[1,4]oxazin-6-yl)-propyl]-biphenyl-4-carboxylic acid], 55.6 nM; in that of `COC(=O)c1cnc(Oc2ccc([C@@H](C)[C@@](O)(c3ccc4oc(=O)n(C)c4c3)C(F)(F)F)c(Cl)c2)nc1` (relative stereo) [Example 202, 2-{3-Chloro-4-[3,3,3-trifluoro-2-hydroxy-1-methyl-2-(3-methyl-2-oxo-2,3-dihydro-benzooxazol-5-yl)-propyl]-phenoxy}-pyrimidine-5-carboxylic acid methyl ester], 1.8 nM.
With `C[C@H](c1ccc(OC(C)(C)C(=O)O)cc1Cl)[C@@](O)(c1ccc2c(c1)N(C)C(=O)CO2)C(F)(F)F` (stereo in doubt) [Example 207, 2-{3-Chloro-4-[3,3,3-trifluoro-2-hydroxy-1-methyl-2-(4-methyl-3-oxo-3,4-dihydro-2H-benzo[1,4]oxazin-6-yl)-propyl]-phenoxy}-2-methyl-propionic acid], the Ki was 370 nM.
In the case of `COC(=O)c1ccc(-c2ccc([C@H](C)[C@](O)(c3cc4c(cc3F)OCC(=O)N4C)C(F)(F)F)c(Cl)c2)cc1F` (relative stereo) [Example 136, 3′-Chloro-3-fluoro-4′-[3,3,3-trifluoro-2-(7-fluoro-4-methyl-3-oxo-3,4-dihydro-2H-benzo[1,4]oxazin-6-yl)-2-hydroxy-1-methyl-propyl]-biphenyl-4-carboxylic acid methyl ester], the inhibition constant (Ki) is 1.3 nM.
The same measure for `C[C@H](c1ccc(-c2ccc(C(=O)O)cc2F)cc1Cl)[C@@](O)(c1ccc2oc(=O)n(C)c2c1)C(F)(F)F` (relative stereo) [Example 126, 3′-Chloro-2-fluoro-4′-[3,3,3-trifluoro-2-hydroxy-1-methyl-2-(3-methyl-2-oxo-2,3-dihydro-benzooxazol-5-yl)-propyl]-biphenyl-4-carboxylic acid]: 0.5 nM.
In the case of `C[C@@H](c1ccc(Oc2ccc(CC(=O)O)cc2)cc1Cl)[C@](O)(c1ccc2c(c1)n(C)c(=O)n2C)C(F)(F)F` (stereo in doubt) [Example 89, (4-{3-Chloro-4-[2-(1,3-dimethyl-2-oxo-2,3-dihydro-1H-benzoimidazol-5-yl)-3,3,3-trifluoro-2-hydroxy-1-methyl-propyl]-phenoxy}-phenyl)-acetic acid] it was 1.1 nM; in that of `CC(c1ccc(Oc2ccc(C(=O)O)cc2F)cc1Cl)C(O)(c1ccc2c(c1)n(C)c(=O)n2C)C(F)(F)F` (stereo not drawn) [Example 86, 4-{3-Chloro-4-[2-(1,3-dimethyl-2-oxo-2,3-dihydro-1H-benzoimidazol-5-yl)-3,3,3-trifluoro-2-hydroxy-1-methyl-propyl]-phenoxy}-3-fluoro-benzoic acid], 2.7 nM.
In the case of `C[C@@H](c1cc(Oc2ccc(C(=O)O)cc2)ccc1Cl)[C@](O)(c1ccc2c(c1)N(C)C(=O)CO2)C(F)(F)F` (relative stereo) [Example 8, 4-{4-Chloro-3-[3,3,3-trifluoro-2-hydroxy-1-methyl-2-(4-methyl-3-oxo-3,4-dihydro-2H-benzo[1,4]oxazin-6-yl)-propyl]-phenoxy}-benzoic acid] it was 10.8 nM; in that of `C[C@H](c1ccc(Oc2ccc(C(=O)O)c(Cl)c2)cc1Cl)[C@@](O)(c1ccc2[nH]c(=O)cc(C(F)(F)F)c2c1)C(F)(F)F` (stereo in doubt) [Example 140, 2-Chloro-4-{3-chloro-4-[3,3,3-trifluoro-2-hydroxy-1-methyl-2-(2-oxo-4-trifluoromethyl-1,2-dihydro-quinolin-6-yl)-propyl]-phenoxy}-benzoic acid], 22 nM; in that of `COC(=O)c1ccc(Oc2ccc([C@@H](C)[C@@](O)(c3ccc4oc(=O)n(C)c4c3)C(F)(F)F)c(Cl)c2)nc1Cl` (stereo in doubt) [Example 182, 2-Chloro-6-{3-chloro-4-[3,3,3-trifluoro-2-hydroxy-1-methyl-2-(3-methyl-2-oxo-2,3-dihydro-benzooxazol-5-yl)-propyl]-phenoxy}-nicotinic acid methyl ester], 3.3 nM.
`C[C@H](c1ccc(Oc2ccc(F)c(C(=O)O)c2)cc1Cl)[C@@](O)(c1ccc2c(c1)N(C)C(=O)CO2)C(F)(F)F` (racemic) [Example 56, 5-{3-Chloro-4-[3,3,3-trifluoro-2-hydroxy-1-methyl-2-(4-methyl-3-oxo-3,4-dihydro-2H-benzo[1,4]oxazin-6-yl)-propyl]-phenoxy}-2-fluoro-benzoic acid]: the Ki was 0.3 nM.
In the case of `C[C@H](c1ccc(Oc2ccc(C(=O)O)c(Cl)c2)cc1Cl)[C@@](O)(c1ccc2c(c1)OCC(=O)N2C)C(F)(F)F` (relative stereo) [Example 160, 2-Chloro-4-{3-chloro-4-[3,3,3-trifluoro-2-hydroxy-1-methyl-2-(4-methyl-3-oxo-3,4-dihydro-2H-benzo[1,4]oxazin-7-yl)-propyl]-phenoxy}-benzoic acid] it was 1.3 nM.
The same measure for `C[C@@H](c1ccc(-c2ccc(C(=O)O)c(F)c2)cc1Cl)[C@](O)(c1ccc2oc(=O)n(C)c2c1)C(F)(F)F` [Example 119, 3′-Chloro-3-fluoro-4′-[(1S,2S)-3,3,3-trifluoro-2-hydroxy-1-methyl-2-(3-methyl-2-oxo-2,3-dihydro-benzooxazol-5-yl)-propyl]-biphenyl-4-carboxylic acid]: 0.3 nM; for `C[C@H](c1ccc(Oc2cccc(OCC(=O)O)c2)cc1Cl)[C@@](O)(c1ccc2c(c1)n(C)c(=O)n2C)C(F)(F)F` (stereo in doubt) [Example 94, (3-{3-Chloro-4-[2-(1,3-dimethyl-2-oxo-2,3-dihydro-1H-benzoimidazol-5-yl)-3,3,3-trifluoro-2-hydroxy-1-methyl-propyl]-phenoxy}-phenoxy)-acetic acid]: 0.3 nM.
`C[C@H](c1ccc(-c2ccc(C(=O)O)c(F)c2)cc1Cl)[C@@](O)(c1cccc(C#N)c1)C(F)(F)F` (relative stereo) [Example 153, 3′-Chloro-4′-[2-(3-cyano-phenyl)-3,3,3-trifluoro-2-hydroxy-1-methyl-propyl]-3-fluoro-biphenyl-4-carboxylic acid]: the Ki is 23.2 nM.
The same measure for `C[C@@H](c1cc(Oc2cccc(C(=O)O)c2)ccc1Cl)[C@](O)(c1ccc2c(c1)N(C)C(=O)CO2)C(F)(F)F` (stereo in doubt) [Example 6, 3-{4-Chloro-3-[3,3,3-trifluoro-2-hydroxy-1-methyl-2-(4-methyl-3-oxo-3,4-dihydro-2H-benzo[1,4]oxazin-6-yl)-propyl]-phenoxy}-benzoic acid]: 4.8 nM.
The same measure for `C[C@H](c1ccc(O)cc1Cl)[C@@](O)(c1ccc2oc(=O)n(C)c2c1)C(F)(F)F` (relative stereo) [Example 172, 5-[2-(2-Chloro-4-hydroxy-phenyl)-1-hydroxy-1-trifluoromethyl-propyl]-3-methyl-3H-benzooxazol-2-one]: 0.6 nM.
